Assay results: article PMC2603313, “Direct Inhibition of GSK3β by the Phosphorylated Cytoplasmic Domain of LRP6 in Wnt/β-Catenin Signaling” (PLoS ONE, 2008)
“Also recorded” adds a separate entry of the source. Ends that are not written are not given here.

Key:
HepG2 cells [1] = assay: Western blot of β-catenin in transfected HepG2 cells; format: cell-based; conditions: GFP fusion, 24 h
Protocol: (§1) pEGFP-miniCL and pEGFP-miniCLMT vectors were transfected into A549 cells and HepG2 cells using jetpei according to the manufacturer's protocol (Polyplus transfection). In brief, 2 µg of DNA and jetpei mixtures were added to A549 cells and HepG2 cell and incubated for 3 h under serum-free conditions, and then equal volumes of DMEM containing 20% serum were added. After 24 h incubation, cells were harvested using RIPA (containing protease cocktail). Subsequently, 20 µg of protein lysates were applied to SDS-PAGE. After transferring the proteins to a PVDF membrane, samples were incubated with the appropriate antibodies, according to standard western blot protocol.
Supplementary file pone.0004046.s002.tif: Figure S2 Western blotting analysis from the transfected HepG2 cells. Labels at the left side of blots indicate the antibody used for detection of the corresponding protein. The endogenous β-catenin level was detected by an anti-β-catenin antibody. p-GS indicates the level of the phosphorylated GS by GSK3β, detected by anti-glycogen synthase (Ser641) antibody. p-S9-GSK3β indicates the phosphorylated Ser9 of GSK3β, and was detected by anti-phospho GSK3β (Ser9) antibody. Levels of transfected proteins were detected using monoclonal GFP antibody, indicated by GFP. Pan-Ras is shown as a loading control. (0.05 MB TIF) Click here for additional data file.

glycogen synthase = assay: Western blot of phosphorylated glycogen synthase (Ser641) in transfected A549 cells; format: cell-based; conditions: GFP fusion, anti-glycogen synthase (Ser641)
Text: (§2) Figure 1 LRP6 constructs and their cytoplasmic overexpression in cell. (A) Schematic representation of the full-length LRP6 and amino acid sequences of LRP6 intracellular fragments used in this study. The Ser/Thr rich cluster and PPPSPxS motif are underlined in each sequence. Phosphorylated residues are highlighted. (B) Cytosolic overexpression of the LRP6 constructs. A549 cells in which control (empty vector, EV, encoding only GFP), miniCL and miniCLMT were transfected as GFP fusion proteins. Control, miniCL and miniCLMT were detected through the green fluorescence from GFP. β-Catenin was detected using an anti-β-catenin antibody, and the nuclei were detected by DAPI staining. […] Endogenous β-catenin was detected by an anti-β-catenin antibody. p-GS indicates the level of the phosphorylated GS by GSK3β, detected by anti-glycogen synthase (Ser641) antibody. p-S9-GSK3β indicates the phosphorylated Ser9 of GSK3β, and was detected by anti-phospho GSK3β (Ser9) antibody. Levels of transfected proteins were detected using monoclonal GFP antibody, indicated by GFP. Total cellular levels of GS and GSK3β were measured by anti-GS antibody and anti-GSK3β antibody, which are indicated by t-GS and t-GSK3β, respectively. […] (D) Activation of Wnt/β-catenin signaling, which was measured by the Top-flash luciferase activity. […] The luciferase activities were measured after 24 h of the transfection. […]

GSK3β [2] = assay: Western blot of GSK3β phosphorylated at Ser9 in transfected A549 cells; format: cell-based; conditions: GFP fusion
Text: as §2

A549 cells [3] = assay: β-Catenin immunofluorescence in transfected A549 cells; format: cell-based; conditions: GFP fusion
Text: as §2

HepG2 cells [4] = assay: β-Catenin immunofluorescence in transfected HepG2 cells; format: cell-based; conditions: GFP fusion
Protocol: as §1
Transfected cells were fixed with 100% methanol for 20 min at −20°C. After washing with PBS and subsequent blocking with blocking buffer (PBS+0.05% BSA), fixed cells were incubated with anti-β-catenin antibody for 2 h at room temperature. […] After washing with PBS, expression of β-catenin, GFP, and DAPI were analyzed using fluorescence microscopy.
Supplementary file pone.0004046.s001.tif: Figure S1 Cytosolic overexpression of the LRP6 constructs in HepG2 cells. […] Control, miniCL and miniCLMT were detected through the green fluorescence from GFP. β-Catenin was detected using an anti-β-catenin antibody, and the nuclei were detected by DAPI staining. […]

Wnt/β-catenin signaling = assay: TOP-flash luciferase assay in 293 cells; format: cell-based; conditions: 24 h after transfection, 4 independent experiments, p<0.01 vs empty vector and vs miniCLMT
Text: as §2

A549 cells [5] = assay: Western blot of β-catenin in transfected A549 cells; format: cell-based; conditions: GFP fusion, 24 h
Text: as §2

GSK3β [6] = molecular target: T1, GSK3β (Mus musculus, UniProt Q9WV60); assay: Far western binding of GSK3β to miniCL in presence of Axin GBD; conditions: phosphorylated GST-miniCL; GSK3β 0.1 µg/ml; GST-Axin GBD 0, 10 µM; three independent experiments
T1 construct: The catalytic domains of mouse GSK3β (residues 27–393) and CK1ε (residues 1–319) were expressed and purified; made in house
Protocol: Figure 4 Phosphorylation-dependent binding of the LRP6 intracellular region to GSK3β in the absence and presence of Axin. (A) GST (Lane 1), GST-fused miniCL (Lane 3; GST-miniCL), GST-fused miniCLMT (Lane 5; GST-miniCLMT), and their phosphorylated forms (Lanes 2, 4, 6; indicated by “phos”) were loaded onto an SDS-polyacrylamide gel, and then transferred to PVDF membrane (Left top). […] The phosphorylated protein bands show an upshifted mobility on the gel. The PVDF membrane was incubated with 1 µg/ml of GSK3β to allow GSK3β to bind to the proteins in the membrane. The bound GSK3β was visualized on the transferred proteins by western blotting using an anti-GSK3β antibody (Left bottom), and the GSK3β protein used to obtain the phosphorylated forms of each protein is indicated by GSK3β*. The band intensities of bound GSK3β were measured from the three independent experiments (Right). […] The phosphorylated GST-fused miniCL was transferred to PVDF membrane, and the membrane was incubated with GSK3β (0.1 µg/ml) and GST-fused Axin GBD domain protein (0, 10 µM). Error bars indicate the standard deviation from three independent experiments. […]
GST-fusion proteins (GST-miniCL, GST-miniCLMT, GST-PPPSPxS, GST-PPPAPxS) were subjected to SDS-PAGE and transferred to a PVDF membrane. […] The binding of GSK3β was detected with rabbit anti-GSK3β antibody and secondary HRP-conjugated goat anti-rabbit IgG (Pierce).

LRP6 miniCL = assay: Far western binding of Axin fragment to LRP6 miniCL with GSK3β; design: species or system human; conditions: GST-miniCL 15 µg on PVDF; GSK3β 2 µg/ml and/or His-Axin 12 µg/ml
Protocol: Figure 4 Phosphorylation-dependent binding of the LRP6 intracellular region to GSK3β in the absence and presence of Axin. (A) GST (Lane 1), GST-fused miniCL (Lane 3; GST-miniCL), GST-fused miniCLMT (Lane 5; GST-miniCLMT), and their phosphorylated forms (Lanes 2, 4, 6; indicated by “phos”) were loaded onto an SDS-polyacrylamide gel, and then transferred to PVDF membrane (Left top). […] The phosphorylated protein bands show an upshifted mobility on the gel. The PVDF membrane was incubated with 1 µg/ml of GSK3β to allow GSK3β to bind to the proteins in the membrane. The bound GSK3β was visualized on the transferred proteins by western blotting using an anti-GSK3β antibody (Left bottom), and the GSK3β protein used to obtain the phosphorylated forms of each protein is indicated by GSK3β*. The band intensities of bound GSK3β were measured from the three independent experiments (Right). […] The phosphorylated GST-fused miniCL was transferred to PVDF membrane, and the membrane was incubated with GSK3β (0.1 µg/ml) and GST-fused Axin GBD domain protein (0, 10 µM). Error bars indicate the standard deviation from three independent experiments. (C) GSK3β mediates the binding of an Axin fragment to LRP6 miniCL region. […]

T1 sequence (Q9WV60 27-393): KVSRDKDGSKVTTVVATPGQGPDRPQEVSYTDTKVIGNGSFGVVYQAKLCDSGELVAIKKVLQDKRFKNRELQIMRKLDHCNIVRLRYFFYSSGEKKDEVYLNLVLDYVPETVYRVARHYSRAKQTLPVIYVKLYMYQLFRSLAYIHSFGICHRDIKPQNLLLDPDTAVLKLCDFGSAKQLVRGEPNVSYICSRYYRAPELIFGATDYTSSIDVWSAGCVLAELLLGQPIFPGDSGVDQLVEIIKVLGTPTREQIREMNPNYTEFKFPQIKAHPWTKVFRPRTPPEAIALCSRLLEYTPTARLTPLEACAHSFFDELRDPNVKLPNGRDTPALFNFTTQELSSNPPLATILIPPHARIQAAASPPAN

## miniCL: LRP6 miniCL (residues 1470–1510 of human LRP6), GFP fusion in cells (SSSSSSTKGTYFPAILNPPPSPATERSHYTMEFGYSSNSPS; not fully specified; also: GFP fusion in cells (GFP left off))
HepG2 cells [1]
  β-catenin level (western blot): increased level of β-catenin
Glycogen synthase
  Phosphorylation of glycogen synthase (p-GS): suppressed phosphorylation of glycogen synthase
GSK3β [2]
  Phosphorylation of Ser9 in GSK3β: without the induction of phosphorylation of Ser9 in GSK3β
A549 cells [3]
  Total cellular β-catenin and nuclear translocation: dramatically increased the total amount of cellular β-catenin and promoted the translocation of β-catenin into the nucleus
HepG2 cells [4]
  Total cellular β-catenin and nuclear translocation: dramatically increased the total amount of cellular β-catenin and promoted the translocation of β-catenin into the nucleus
Wnt/β-catenin signaling
  TOP-flash luciferase activity: significantly induced TOP-flash activity; also recorded: significantly activated Wnt/β-catenin signaling
A549 cells [5]
  β-catenin level (western blot): increased level of β-catenin
GSK3β [6]
  Effect of Axin GBD on GSK3β binding to miniCL: does not affect the binding of GSK3β; also recorded: not affected by the presence of Axin

B1: Axin fragment: His-tagged Axin fragment (residues 512–650) including the GBD and the β-catenin binding domain (protein, UniProt O35625 512-650, looked up, fragment)
chain: GKHVPKLGLKLDTAGLHHHRHVHHHVHHNSARPKEQMEAEVARRVQSSFSWGPETHGHAKPRSYSENAGTTLSAGDLAFGGKTSAPSKRNTKKAESGKNANAEVPSTTEDAEKNQKIMQWIIEGEKEISRHRKAGHGSS
modifications: His tag
LRP6 miniCL
  Binding to LRP6 miniCL: bound to LRP6 miniCL only in the presence of GSK3β; also recorded: bound to the LRP6 miniCL fragment only when GSK3β was co-incubated
